Laboratory results from PubChem BioAssay (NCI).
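Compound exposure: 48 hours, 5 concentrations, 96-well plates. Definition used: TGI = concentration required for complete inhibition of growth.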

Experiments:
Experiment in all cases: DTP human tumour cell line panel, 48 h
[1] = tested on: 786-0 renal
[2] = tested on: A498 renal
[3] = tested on: A549 NSCLC
[4] = tested on: ACHN renal
[5] = tested on: BT-549 breast
[6] = tested on: CAKI-1 renal
[7] = tested on: CCRF-CEM leukemia
[8] = tested on: COLO 205 colon
[9] = tested on: DMS 114 small cell lung
[10] = tested on: DMS 273 small cell lung
[11] = tested on: DU-145 prostate
[12] = tested on: EKVX NSCLC
[13] = tested on: HCC-2998 colon
[14] = tested on: HCT-116 colon
[15] = tested on: HCT-15 colon
[16] = tested on: HL-60(TB) leukemia
[17] = tested on: HOP-62 NSCLC
[18] = tested on: HOP-92 NSCLC
[19] = tested on: HT29 colon
[20] = tested on: IGROV1 ovarian
[21] = tested on: K-562 leukemia
[22] = tested on: KM12 colon
[23] = tested on: KM20L2 colon
[24] = tested on: LOX IMVI melanoma
[25] = tested on: LXFL 529 NSCLC
[26] = tested on: M14 melanoma
[27] = tested on: M19-MEL melanoma
[28] = tested on: MALME-3M melanoma
[29] = tested on: MCF7 breast
[30] = tested on: MDA-MB-231 breast
[31] = tested on: MDA-MB-435
[32] = tested on: MDA-N
[33] = tested on: MOLT-4 leukemia
[34] = tested on: NCI-H226 lung
[35] = tested on: NCI-H23 lung
[36] = tested on: NCI-H460 lung
[37] = tested on: NCI-H522 lung
[38] = tested on: NCI/ADR-RES ovarian
[39] = tested on: OVCAR-3 ovarian
[40] = tested on: OVCAR-4 ovarian
[41] = tested on: OVCAR-5 ovarian
[42] = tested on: OVCAR-8 ovarian
[43] = tested on: PC-3 prostate
[44] = tested on: RPMI-8226 leukemia
[45] = tested on: RXF 393 renal
[46] = tested on: SF-268 CNS
[47] = tested on: SF-295 CNS
[48] = tested on: SF-539 CNS
[49] = tested on: SK-MEL-2 melanoma
[50] = tested on: SK-MEL-28 melanoma
[51] = tested on: SK-MEL-5 melanoma
[52] = tested on: SK-OV-3 ovarian
[53] = tested on: SN12C renal
[54] = tested on: SNB-19 CNS
[55] = tested on: SNB-75 CNS
[56] = tested on: SNB-78 CNS
[57] = tested on: SR leukemia
[58] = tested on: SW-620 colon
[59] = tested on: T-47D breast
[60] = tested on: TK-10 renal
[61] = tested on: U251 CNS
[62] = tested on: UACC-257 melanoma
[63] = tested on: UACC-62 melanoma
[64] = tested on: UO-31 renal

Compound: CC(C)Cn1cnc2c(Sc3c([N+](=O)[O-])ncn3C)nc(N)nc21
- TGI [1]: > 100 µM
- TGI [2]: > 100 µM
- TGI [3]: > 100 µM
- TGI [4]: > 100 µM
- TGI [5]: > 100 µM
- TGI [6]: > 100 µM
- TGI [7]: > 100 µM
- TGI [8]: > 62.9 µM
- TGI [9]: > 100 µM
- TGI [10]: > 100 µM
- TGI [11]: > 100 µM
- TGI [12]: > 100 µM
- TGI [13]: > 100 µM
- TGI [14]: > 100 µM
- TGI [15]: > 100 µM
- TGI [16]: > 100 µM
- TGI [17]: > 100 µM
- TGI [18]: 36.9 µM
- TGI [19]: > 100 µM
- TGI [20]: > 100 µM
- TGI [21]: > 100 µM
- TGI [22]: > 100 µM
- TGI [23]: > 100 µM
- TGI [24]: > 100 µM
- TGI [25]: > 100 µM
- TGI [26]: > 100 µM
- TGI [27]: > 100 µM
- TGI [28]: > 59.8 µM
- TGI [29]: > 100 µM
- TGI [30]: > 100 µM
- TGI [31]: > 100 µM
- TGI [32]: > 100 µM
- TGI [33]: > 100 µM
- TGI [34]: > 100 µM
- TGI [35]: > 100 µM
- TGI [36]: > 100 µM
- TGI [37]: 89.1 µM
- TGI [38]: > 100 µM
- TGI [39]: > 57.4 µM
- TGI [40]: > 100 µM
- TGI [41]: > 100 µM
- TGI [42]: > 100 µM
- TGI [43]: > 100 µM
- TGI [44]: > 100 µM
- TGI [45]: > 100 µM
- TGI [46]: > 100 µM
- TGI [47]: > 100 µM
- TGI [48]: > 100 µM
- TGI [49]: 81.9 µM
- TGI [50]: > 100 µM
- TGI [51]: > 100 µM
- TGI [52]: > 100 µM
- TGI [53]: > 100 µM
- TGI [54]: > 100 µM
- TGI [55]: > 100 µM
- TGI [56]: > 100 µM
- TGI [57]: > 100 µM
- TGI [58]: > 100 µM
- TGI [59]: > 100 µM
- TGI [60]: > 100 µM
- TGI [61]: > 100 µM
- TGI [62]: > 100 µM
- TGI [63]: > 100 µM
- TGI [64]: > 75 µM
